Source: patent publication US12643903B2, “Bifunctional compounds for degradation of EGFR and related methods of use” (BeiGene, Ltd., priority 2020, dated 2026)

How the values were obtained:
EGFR DTC = assay: Cell Degradation 3: EGFR degradation in BaF3 cells (DTC), HTRF assay; type: cell-based; details: 16 h treatment, EGFR degradation by HTRF
Procedure: (§1) Cell Degradation 3 Cell Treatment
(§2) BaF3 cells are treated with compounds diluted in 0.2% DMSO, dilution is done according to the following protocol: (1) make 500× stock solution in DMSO from 5 mM by 4-fold dilution, total 8 doses were included; (2) make 2× solution in cell culture medium by transferring 0.5 μl 500× stock solution into 125 μl medium; (3) 30 μl of 2× solution is added to cells and incubate for 16 h.
(§3) After 16 h treatment, add 20 μl 4×lysis buffer to each well; seal the plate and incubate 1 hour at room temperature on a plate shaker; Once the cells are lysed, 16 μL of cell lysate are transferred to a PE 384-well HTRF detection plate (for triple mutant cells, the lysate were diluted by the qual volume 1×lysis buffer before transfer); 4 μL of pre-mixed HTRF antibodies are added to each well; Cover the plate with a plate sealer, spin 1000 rpm for 1 min, Incubate overnight at room temperature; Read on BMG PheraStar with HTRF protocol (337 nm-665 nm-620 nm).
(§4) The IC50 (DC50) value of a compound can be obtained by fitting the following equation Y=Bottom+(TOP−Bottom)/(1+((IC50/X)^hillslope))
(§5) Wherein, X and Y are known values, and IC50, Hillslope, Top and Bottom are the parameters obtained by fitting with software. Y is the inhibition percentage (calculated from the equation), X is the concentration of the compound; IC50 is the concentration of the compound when the 50% inhibition is reached. The smaller the IC50 value is, the stronger the inhibitory ability of the compound is. Vice versa, the higher the IC50 value is, the weaker the ability the inhibitory ability of the compound is; Hillslope represents the slope of the fitted curve, generally around 1*; Bottom represents the minimum value of the curve obtained by data fitting, which is generally 0%±20%; Top represents the maximum value of the curve obtained by data fitting, which is generally 100%±20%. The experimental data were fitted by calculating and analyzing with Dotmatics data analysis software.

EGFR LTC = biological target: T1, EGFR LTC (Homo sapiens, UniProt P00533, C797S/L858R/T790M); assay: Cell Degradation 3: EGFR degradation in BaF3 cells (LTC), HTRF assay; type: cell-based; details: 16 h treatment, EGFR degradation by HTRF
T1 construct: expressed in transfected cells; host or cells: BaF3
Procedure: as §1, §2, §3, §4, §5

T1 sequence (P00533 25-1210 T790M/C797S/L858R): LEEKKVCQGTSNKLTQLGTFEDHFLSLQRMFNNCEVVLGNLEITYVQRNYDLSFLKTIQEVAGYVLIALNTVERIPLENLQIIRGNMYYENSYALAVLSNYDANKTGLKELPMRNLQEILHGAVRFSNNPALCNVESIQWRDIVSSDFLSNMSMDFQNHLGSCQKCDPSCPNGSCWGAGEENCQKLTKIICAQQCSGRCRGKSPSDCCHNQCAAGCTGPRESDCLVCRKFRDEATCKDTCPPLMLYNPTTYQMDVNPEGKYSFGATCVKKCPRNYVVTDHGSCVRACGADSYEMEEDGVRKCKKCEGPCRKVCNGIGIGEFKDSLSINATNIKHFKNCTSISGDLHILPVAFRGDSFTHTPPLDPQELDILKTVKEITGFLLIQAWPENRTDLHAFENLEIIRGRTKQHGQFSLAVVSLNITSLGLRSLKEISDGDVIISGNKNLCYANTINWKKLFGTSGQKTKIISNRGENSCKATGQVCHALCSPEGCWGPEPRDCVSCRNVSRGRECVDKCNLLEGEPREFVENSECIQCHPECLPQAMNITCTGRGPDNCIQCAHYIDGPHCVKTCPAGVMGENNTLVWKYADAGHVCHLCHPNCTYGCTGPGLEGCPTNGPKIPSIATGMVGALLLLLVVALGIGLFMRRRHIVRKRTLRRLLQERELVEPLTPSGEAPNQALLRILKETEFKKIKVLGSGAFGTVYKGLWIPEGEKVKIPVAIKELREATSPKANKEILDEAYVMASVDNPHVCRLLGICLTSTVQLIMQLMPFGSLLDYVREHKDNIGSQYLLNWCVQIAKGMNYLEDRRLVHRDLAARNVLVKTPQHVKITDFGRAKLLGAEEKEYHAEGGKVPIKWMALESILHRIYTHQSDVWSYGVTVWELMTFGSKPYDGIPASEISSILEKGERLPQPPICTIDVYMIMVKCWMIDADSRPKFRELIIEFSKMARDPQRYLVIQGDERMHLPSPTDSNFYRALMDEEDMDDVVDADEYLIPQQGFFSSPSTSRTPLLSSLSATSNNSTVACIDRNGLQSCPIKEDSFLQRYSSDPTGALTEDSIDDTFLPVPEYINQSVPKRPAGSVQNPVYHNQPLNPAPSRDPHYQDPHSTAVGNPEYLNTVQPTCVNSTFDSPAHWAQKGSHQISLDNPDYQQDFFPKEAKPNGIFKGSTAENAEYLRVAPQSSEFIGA

Compound	DC50 (EGFR DTC)	DC50 (EGFR LTC)
COc1cc(N2CCC(N3CCN(CC4CN(c5ccc6c(c5)C(=O)N(C5CCC(=O)NC5=O)C6=O)C4)CC3)CC2)c(C)cc1Nc1ncc(Br)c(Nc2cccc3c2N(S(C)(=O)=O)CC3)n1 (stereo not shown) [Example 151, 5-(3-((4-(1-(4-((5-bromo-4-((1-(methylsulfonyl)indolin-7-yl)amino)pyrimidin-2-yl)amino)-5-methoxy-2-methylphenyl)piperidin-4-yl)piperazin-1-yl)methyl)azetidin-1-yl)-2-(2,6-dioxopiperidin-3-yl)isoindoline-1,3-dione]	14 nM	17 nM
COc1cc(N2CCC(N3CCN(CCc4ccc(NC5CCC(=O)NC5=O)cc4)CC3)CC2)c(C)cc1Nc1ncc(Br)c(Nc2cccc3c2N(S(C)(=O)=O)CC3)n1 (stereo not shown) [Example 152, 3-((4-(2-(4-(1-(4-((5-bromo-4-((1-(methylsulfonyl)indolin-7-yl)amino)pyrimidin-2-yl)amino)-5-methoxy-2-methylphenyl)piperidin-4-yl)piperazin-1-yl)ethyl)phenyl)amino)piperidine-2,6-dione]	66 nM	27 nM
COc1cc(N2CCC(N3CCN(CCc4cc(F)c(C5CCC(=O)NC5=O)cc4F)CC3)CC2)c(C)cc1Nc1ncc(Br)c(Nc2cccc3c2N(S(C)(=O)=O)CC3)n1 (stereo not shown) [Example 155, 3-(4-(2-(4-(1-(4-((5-bromo-4-((1-(methylsulfonyl)indolin-7-yl)amino)pyrimidin-2-yl)amino)-5-methoxy-2-methylphenyl)piperidin-4-yl)piperazin-1-yl)ethyl)-2,5-difluorophenyl)piperidine-2,6-dione]	19 nM	56 nM
COc1cc(N2CCC(N3CCN(C[C@H]4CCN(c5ccc6c(c5)C(=O)N(C5CCC(=O)NC5=O)C6=O)C4)CC3)CC2)c(C)cc1Nc1ncc(Br)c(Nc2cccc3c2N(S(C)(=O)=O)CC3)n1 (stereo partly drawn) [Example 156, 5-((R)-3-((4-(1-(4-((5-bromo-4-((1-(methylsulfonyl)indolin-7-yl)amino)pyrimidin-2-yl)amino)-5-methoxy-2-methylphenyl)piperidin-4-yl)piperazin-1-yl)methyl)pyrrolidin-1-yl)-2-(2,6-dioxopiperidin-3-yl)isoindoline-1,3-dione]	21 nM	33 nM
COc1cc(N2CCC(N3CCN(CCN4CCC(c5ccc(NC6CCC(=O)NC6=O)cc5)CC4)CC3)CC2)c(C)cc1Nc1ncc(Br)c(Nc2cccc3c2N(S(C)(=O)=O)CC3)n1 (stereo not shown) [Example 157, 3-((4-(1-(2-(4-(1-(4-((5-bromo-4-((1-(methylsulfonyl)indolin-7-yl)amino)pyrimidin-2-yl)amino)-5-methoxy-2-methylphenyl)piperidin-4-yl)piperazin-1-yl)ethyl)piperidin-4-yl)phenyl)amino)piperidine-2,6-dione]	300 nM	396 nM
COc1cc(N2CCC(N3CCN(C(=O)[C@H]4C[C@H](N(C)c5ccc6c(c5)C(=O)N(C5CCC(=O)NC5=O)C6=O)C4)CC3)CC2)c(C)cc1Nc1ncc(Br)c(Nc2cccc3c2N(S(C)(=O)=O)CC3)n1 (stereo partly shown) [Example 158, 5-(((1r,3r)-3-(4-(1-(4-((5-bromo-4-((1-(methylsulfonyl)indolin-7-yl)amino)pyrimidin-2-yl)amino)-5-methoxy-2-methylphenyl)piperidin-4-yl)piperazine-1-carbonyl)cyclobutyl)(methyl)amino)-2-(2,6-dioxopiperidin-3-yl)isoindoline-1,3-dione]	19 nM	41 nM
CCc1cc(Nc2ncc(Br)c(Nc3cccc4c3N(S(C)(=O)=O)CC4)n2)c(OC)cc1N1CCC(N2CCN(CCC3CCN(c4cc(F)c(C5CCC(=O)NC5=O)c(F)c4)CC3)CC2)CC1 (stereo not shown) [Example 160, 3-(4-(4-(2-(4-(1-(4-((5-bromo-4-((1-(methylsulfonyl)indolin-7-yl)amino)pyrimidin-2-yl)amino)-2-ethyl-5-methoxyphenyl)piperidin-4-yl)piperazin-1-yl)ethyl)piperidin-1-yl)-2,6-difluorophenyl)piperidine-2,6-dione]	150 nM	162 nM

Other lines, results leading:

DC50 (EGFR DTC)	DC50 (EGFR LTC)	Compound
78 nM	> 10000 nM	COc1cc(N2CCC(N3CCN(CCc4ccc(C5CCC(=O)NC5=O)c(F)c4)CC3)CC2)c(C)cc1Nc1nc(Nc2cccc3c2N(S(C)(=O)=O)CC3)c2cc[nH]c2n1 (stereo not shown) [Example 162, 3-(2-fluoro-4-(2-(4-(1-(5-methoxy-2-methyl-4-((4-((1-(methylsulfonyl)indolin-7-yl)amino)-7H-pyrrolo[2,3-d]pyrimidin-2-yl)amino)phenyl)piperidin-4-yl)piperazin-1-yl)ethyl)phenyl)piperidine-2,6-dione]
52 nM	60 nM	COc1cc(N2CCC(N3CCN(C[C@@H]4CCN(c5ccc6c(c5)C(=O)N(C5CCC(=O)NC5=O)C6=O)C4)CC3)CC2)c(C)cc1Nc1ncc(Br)c(Nc2cccc3c2N(S(C)(=O)=O)CC3)n1 (stereo partly drawn) [Example 164, 5-((S)-3-((4-(1-(4-((5-bromo-4-((1-(methylsulfonyl)indolin-7-yl)amino)pyrimidin-2-yl)amino)-5-methoxy-2-methylphenyl)piperidin-4-yl)piperazin-1-yl)methyl)pyrrolidin-1-yl)-2-(2,6-dioxopiperidin-3-yl)isoindoline-1,3-dione]
	83 nM	CCc1cc(Nc2ncc(Br)c(Nc3ccc(C(F)(F)F)c4c3N(S(C)(=O)=O)CC4)n2)c(OC)cc1N1CCC(N2CCN(C(=O)[C@@H]3CCN(c4cc(F)c([C@H]5CCC(=O)NC5=O)c(F)c4)C3)CC2)CC1 [Example 197, (R)-3-(4-((R)-3-(4-(1-(4-((5-bromo-4-((1-(methylsulfonyl)-4-(trifluoromethyl)indolin-7-yl)amino)pyrimidin-2-yl)amino)-2-ethyl-5-methoxyphenyl)piperidin-4-yl)piperazine-1-carbonyl)pyrrolidin-1-yl)-2,6-difluorophenyl)piperidine-2,6-dione]
	34 nM	CCc1cc(Nc2ncc(Br)c(Nc3ccc(CC)c4c3N(S(C)(=O)=O)CC4)n2)c(OC)cc1N1CCC(N2CCN(C(=O)[C@@H]3CCN(c4cc(F)c([C@H]5CCC(=O)NC5=O)c(F)c4)C3)CC2)CC1 [Example 198, (R)-3-(4-((R)-3-(4-(1-(4-((5-bromo-4-((4-ethyl-1-(methylsulfonyl)indolin-7-yl)amino)pyrimidin-2-yl)amino)-2-ethyl-5-methoxyphenyl)piperidin-4-yl)piperazine-1-carbonyl)pyrrolidin-1-yl)-2,6-difluorophenyl)piperidine-2,6-dione]
	513 nM	CCc1cc(Nc2ncc(Br)c(Nc3ccc(N(C)C)c4c3N(S(C)(=O)=O)CC4)n2)c(OC)cc1N1CCC(N2CCN(CCc3cc(F)c([C@H]4CCC(=O)NC4=O)c(F)c3)CC2)CC1 [Example 200, (R)-3-(4-(2-(4-(1-(4-((5-bromo-4-((4-(dimethylamino)-1-(methylsulfonyl)indolin-7-yl)amino)pyrimidin-2-yl)amino)-2-ethyl-5-methoxyphenyl)piperidin-4-yl)piperazin-1-yl)ethyl)-2,6-difluorophenyl)piperidine-2,6-dione]
	83 nM	CCOc1cc(N2CCC(N3CCN(CCc4cc(F)c([C@H]5CCC(=O)NC5=O)c(F)c4)CC3)CC2)c(CC)cc1Nc1ncc(Br)c(Nc2ccc(CC)c3c2N(S(C)(=O)=O)CC3)n1 [Example 203, (R)-3-(4-(2-(4-(1-(4-((5-bromo-4-((4-ethyl-1-(methylsulfonyl)indolin-7-yl)amino)pyrimidin-2-yl)amino)-5-ethoxy-2-ethylphenyl)piperidin-4-yl)piperazin-1-yl)ethyl)-2,6-difluorophenyl)piperidine-2,6-dione]
